Several values for one entry are separate records, joined by “and”; a condition that tells them apart may be missing. Equal entries are not always repeated. Toxic doses and inconclusive results are not listed.
System: P388 leukemia ip, CD2F1 mice, survival T/C
Assay: NCI In Vivo Anticancer Drug Screen. Data for tumor model P388 Leukemia (intraperitoneal) in CD2F1 (CDF1) mice
Details: endpoint: median survival time, higher = longer survival
Procedure, shortened: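 Mice carrying the transplanted tumor received test compound or vehicle. Survival was recorded in each group, and the value is the treated-group measurement divided by that of the vehicle-treated control group.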

[1] = dose: 50.0 mg/kg/injection, schedule: Q01DX005 (ip), vehicle: saline with Tween-80
[2] = dose: 100.0 mg/kg/injection, schedule: Q01DX005 (ip), vehicle: saline with Tween-80
[3] = dose: 200.0 mg/kg/injection, schedule: Q01DX005 (ip), vehicle: saline with Tween-80
[4] = dose: 50.0 mg/kg/injection, schedule: Q01DX005 (ip), vehicle: Klucel (hydroxypropylcellulose) (HPC)
[5] = dose: 100.0 mg/kg/injection, schedule: Q01DX005 (ip), vehicle: Klucel (hydroxypropylcellulose) (HPC)
[6] = dose: 200.0 mg/kg/injection, schedule: Q01DX005 (ip), vehicle: Klucel (hydroxypropylcellulose) (HPC)
[7] = dose: 50.0 mg/kg/injection, schedule: Q01DX009 (ip), vehicle: saline
[8] = dose: 100.0 mg/kg/injection, schedule: Q01DX009 (ip), vehicle: saline
[9] = dose: 200.0 mg/kg/injection, schedule: Q01DX009 (ip), vehicle: saline
[10] = dose: 60.0 mg/kg/injection, schedule: Q01DX005 (ip), vehicle: saline
[11] = dose: 120.0 mg/kg/injection, schedule: Q01DX005 (ip), vehicle: saline
[12] = dose: 240.0 mg/kg/injection, schedule: Q01DX005 (ip), vehicle: saline
[13] = dose: 50.0 mg/kg/injection, schedule: Q01DX009 (ip), vehicle: saline with Tween-80
[14] = dose: 100.0 mg/kg/injection, schedule: Q01DX009 (ip), vehicle: saline with Tween-80
[15] = dose: 200.0 mg/kg/injection, schedule: Q01DX009 (ip), vehicle: saline with Tween-80
[16] = dose: 60.0 mg/kg/injection, schedule: Q01DX005 (ip), vehicle: saline with Tween-80
[17] = dose: 120.0 mg/kg/injection, schedule: Q01DX005 (ip), vehicle: saline with Tween-80
[18] = dose: 240.0 mg/kg/injection, schedule: Q01DX005 (ip), vehicle: saline with Tween-80
[19] = dose: 10.0 mg/kg/injection, schedule: Q01DX009 (ip), vehicle: saline with Tween-80
[20] = dose: 25.0 mg/kg/injection, schedule: Q01DX009 (ip), vehicle: saline
[21] = dose: 25.0 mg/kg/injection, schedule: Q01DX009 (ip), vehicle: Klucel (hydroxypropylcellulose) (HPC)

O=[N+]([O-])c1ccc(N=N/C(=N\Nc2ccccc2)c2nc3ccccc3[nH]2)c([N+](=O)[O-])c1
T/C [1]: 97 % of control
T/C [2]: 95 % of control
T/C [3]: 97 % of control

CC12c3ccccc3CCN1C(c1ccccc1)=NN2c1ccccc1 (stereo unspecified)
T/C (dose: 100.0 mg/kg/injection, schedule: Q01DX001 (ip), vehicle: saline with Tween-80): 105 % of control
T/C (dose: 200.0 mg/kg/injection, schedule: Q01DX001 (ip), vehicle: saline with Tween-80): 103 % of control
T/C (dose: 400.0 mg/kg/injection, schedule: Q01DX001 (ip), vehicle: saline with Tween-80): 102 % of control

c1ccc2c(c1)Oc1cccc3cccc-2c13
T/C [4]: 97 % of control
T/C [5]: 101 % of control
T/C [6]: 101 % of control

CCCCCCCCCCCCCCCC[N+]1(CC)CCSCC1
T/C [7]: 100 % of control
T/C [8]: 96 % of control
T/C [9]: 100 % of control

NC(=O)c1c[se]c(C2OC(CO)C(O)C2O)n1 (stereo unspecified)
T/C (dose: 25.0 mg/kg/injection, schedule: Q01DX005 (ip), vehicle: saline): 154 % of control

CCCOc1ccccc1NC(=O)CN1CCCC1
T/C [10]: 104 % of control
T/C [11]: 106 % of control
T/C [12]: 116 % of control

CC(=O)OC(CCl)C1OC(CCl)C(OC(C)=O)O1 (stereo unspecified)
T/C [13]: 103 % of control
T/C [14]: 103 % of control
T/C [15]: 102 % of control

CC(C)N1C(Nc2ccccn2)C(C)(C)C(C)(C)C1Nc1ccccn1 (stereo unspecified)
T/C (dose: 30.0 mg/kg/injection, schedule: Q01DX005 (ip), vehicle: Klucel (hydroxypropylcellulose) (HPC)): 121 % of control
T/C (dose: 240.0 mg/kg/injection, schedule: Q01DX005 (ip), vehicle: Klucel (hydroxypropylcellulose) (HPC)): 151 % of control and 164 % of control

C=CC(C)NC(=S)NNC(=S)NC (stereo unspecified)
T/C [4]: 101 % of control
T/C [5]: 100 % of control
T/C [6]: 101 % of control

COC(=O)C1C(C)C2CCCCC2CC1(C)O (stereo unspecified)
T/C (dose: 100.0 mg/kg/injection, schedule: Q04DX003 (ip), vehicle: Klucel (hydroxypropylcellulose) (HPC)): 103 % of control
T/C (dose: 200.0 mg/kg/injection, schedule: Q04DX003 (ip), vehicle: Klucel (hydroxypropylcellulose) (HPC)): 112 % of control
T/C (dose: 400.0 mg/kg/injection, schedule: Q04DX003 (ip), vehicle: Klucel (hydroxypropylcellulose) (HPC)): 100 % of control

COc1ccc(-n2nc3c(ccc4ccccc43)c2N)cc1
T/C [16]: 94 % of control
T/C [17]: 95 % of control
T/C [18]: 94 % of control

CCOC(=O)C1C(COCc2ccccc2)C2CCC1(OC)C=C2C (stereo unspecified)
T/C [1]: 99 % of control
T/C [2]: 97 % of control
T/C [3]: 104 % of control

NS(=O)(=O)c1ncnc2nc[nH]c12
T/C [19]: 112 % of control
T/C (dose: 15.0 mg/kg/injection, schedule: Q01DX009 (ip), vehicle: saline with Tween-80): 112 % of control
T/C (dose: 30.0 mg/kg/injection, schedule: Q01DX009 (ip), vehicle: saline with Tween-80): 90 % of control
T/C (dose: 60.0 mg/kg/injection, schedule: Q01DX009 (ip), vehicle: saline with Tween-80): 104 % of control

CCCCC(CCCC)=NO
T/C [1]: 108 % of control
T/C [2]: 100 % of control

NNC(=O)CC(N)C(=O)O (stereo unspecified)
T/C [20]: 100 % of control
T/C [13]: 110 % of control
T/C [7]: 105 % of control and 122 % of control
T/C [14]: 108 % of control
T/C [8]: 109 % of control and 122 % of control
T/C [15]: 117 % of control
T/C [9]: 116 % of control
T/C (dose: 400.0 mg/kg/injection, schedule: Q01DX009 (ip), vehicle: saline): 107 % of control

CC(C)CCC(=O)OCCN1CCN(CCCN2c3ccccc3Sc3ccc(C(F)(F)F)cc32)CC1
T/C (dose: 12.5 mg/kg/injection, schedule: Q01DX009 (ip), vehicle: Klucel (hydroxypropylcellulose) (HPC)): 114 % of control and 117 % of control
T/C [21]: 116 % of control

O=S(=O)(C(Br)CBr)C(Br)CBr (stereo unspecified)
T/C (dose: 6.25 mg/kg/injection, schedule: Q01DX009 (ip), vehicle: saline with Tween-80): 113 % of control
T/C (dose: 12.5 mg/kg/injection, schedule: Q01DX009 (ip), vehicle: saline with Tween-80): 118 % of control
T/C (dose: 25.0 mg/kg/injection, schedule: Q01DX009 (ip), vehicle: saline with Tween-80): 122 % of control

COC1(OC)CC(CCl)OC1(OC)OC (stereo unspecified)
T/C [10]: 103 % of control
T/C [11]: 103 % of control
T/C [12]: 101 % of control

COc1ccc(CSC(=S)Nc2cc(Cl)c(Cl)cc2Cl)cc1
T/C (dose: 12.5 mg/kg/injection, schedule: Q01DX009 (ip), vehicle: saline): 88 % of control
T/C [20]: 97 % of control
T/C [7]: 99 % of control
T/C (dose: 50.0 mg/kg/injection, schedule: Q01DX009 (ip), vehicle: suspension in saline): 93 % of control
T/C (dose: 100.0 mg/kg/injection, schedule: Q01DX009 (ip), vehicle: suspension in saline): 103 % of control

COc1cc(C(Nc2ncccn2)c2cc3c(cc2OC(C)=O)OCO3)cc(OC)c1OC (stereo unspecified)
T/C [16]: 98 % of control
T/C [17]: 98 % of control
T/C [18]: 95 % of control

COC(=O)C1=CCN2CCCC12C (stereo unspecified)
T/C (dose: 25.0 mg/kg/injection, schedule: Q01DX001 (ip), vehicle: saline): 97 % of control
T/C (dose: 50.0 mg/kg/injection, schedule: Q01DX001 (ip), vehicle: saline): 101 % of control
T/C (dose: 100.0 mg/kg/injection, schedule: Q01DX001 (ip), vehicle: saline): 105 % of control

O=C(O)c1cc(-c2ccc(Cl)cc2)nc2c1ccc1ccccc12
T/C (dose: 25.0 mg/kg/injection, schedule: Q01DX005 (ip), vehicle: Klucel (hydroxypropylcellulose) (HPC)): 100 % of control
T/C [4]: 100 % of control
T/C [5]: 100 % of control

CC(C)CCOC(=O)CN(CC(=O)OCCC(C)C)c1ccccc1
T/C (dose: 100.0 mg/kg/injection, schedule: Q04DX003 (ip), vehicle: saline with Tween-80): 104 % of control
T/C (dose: 200.0 mg/kg/injection, schedule: Q04DX003 (ip), vehicle: saline with Tween-80): 100 % of control
T/C (dose: 400.0 mg/kg/injection, schedule: Q04DX003 (ip), vehicle: saline with Tween-80): 95 % of control

Nc1ccc(/C=C/c2ccnc3ccccc23)c(N)c1
T/C (dose: 1.25 mg/kg/injection, schedule: Q01DX001 (ip), vehicle: Klucel (hydroxypropylcellulose) (HPC)): 107 % of control
T/C (dose: 2.5 mg/kg/injection, schedule: Q01DX001 (ip), vehicle: Klucel (hydroxypropylcellulose) (HPC)): 108 % of control
T/C (dose: 5.0 mg/kg/injection, schedule: Q01DX001 (ip), vehicle: Klucel (hydroxypropylcellulose) (HPC)): 114 % of control
T/C (dose: 10.0 mg/kg/injection, schedule: Q01DX001 (ip), vehicle: Klucel (hydroxypropylcellulose) (HPC)): 107 % of control

N#CN=C(N)N=P(c1ccccc1)(c1ccccc1)c1ccccc1
T/C (dose: 100.0 mg/kg/injection, schedule: Q01DX001 (ip), vehicle: Klucel (hydroxypropylcellulose) (HPC)): 97 % of control
T/C (dose: 200.0 mg/kg/injection, schedule: Q01DX001 (ip), vehicle: Klucel (hydroxypropylcellulose) (HPC)): 100 % of control
T/C (dose: 400.0 mg/kg/injection, schedule: Q01DX001 (ip), vehicle: Klucel (hydroxypropylcellulose) (HPC)): 91 % of control

CN(C)Cc1c(N=Nc2ccc3ccc4cccc5ccc2c3c45)[nH]c2ccccc12
T/C [13]: 103 % of control
T/C [14]: 115 % of control
T/C [15]: 115 % of control

COC(=O)c1nc(N)nc(C(=O)OC)c1C(=O)c1ccc(C)cc1
T/C [16]: 98 % of control
T/C [17]: 100 % of control

O=C(Nc1nccs1)Nc1cc(F)ccc1F
T/C [21]: 90 % of control
T/C (dose: 50.0 mg/kg/injection, schedule: Q01DX009 (ip), vehicle: Klucel (hydroxypropylcellulose) (HPC)): 90 % of control
T/C (dose: 100.0 mg/kg/injection, schedule: Q01DX009 (ip), vehicle: Klucel (hydroxypropylcellulose) (HPC)): 90 % of control
T/C (dose: 200.0 mg/kg/injection, schedule: Q01DX009 (ip), vehicle: Klucel (hydroxypropylcellulose) (HPC)): 90 % of control

CC(C)=CCOc1ccc2ccc(=O)oc2c1
T/C (dose: 5.0 mg/kg/injection, schedule: Q01DX009 (ip), vehicle: saline with Tween-80): 106 % of control
T/C [19]: 108 % of control
T/C (dose: 20.0 mg/kg/injection, schedule: Q01DX009 (ip), vehicle: saline with Tween-80): 103 % of control
